Holding throughout (format): cell-based
For test [1], the target named is T1, fatty acid synthase (FASN) in colon cancer cells HCT116 (Homo sapiens, UniProt P49327).
T1 construct: endogenous in cells; host or cells: HCT116 colon cancer cells
The experiment in a line: FASN enzyme activity detection in treated HCT116 cells (NADPH absorbance at 340 nm). The conditions noted are these: for inhibition at 20 µM: HCT-116, 4 hours of incubation, read-out: FASN enzyme activity inhibition rate (%).

For test [2], the system named is prostate cancer cells PC-3. The experiment in a line: MTT tumor proliferation IC50, PC-3. The conditions noted are these: 72 hours of incubation. From the text: (§1) IC50 (half maximal inhibitory concentration) refers to the half inhibitory concentration of a measured antagonist. It can indicate that a certain concentration of a certain drug or substance (inhibitor) induces tumor cell apoptosis by 50%, and this concentration is referred to as 50% inhibitory concentration, namely, the corresponding concentration when the ratio of apoptotic cells to the total number of cells is equal to 50%. The IC50 value can be used to measure the ability of a drug to induce apoptosis, that is, the higher the inducing ability, the lower the value, which also can indicate the tolerance degree of a certain cell to a drug on the contrary. • (1) Cells in the logarithmic phase are collected, the concentration of a cell suspension is adjusted, it is appropriate to place 100 μl cells in each well of a 96-well plate, the cells are inoculated into the plate to adjust the density of to-be-detected cells to be 1000-10000 cells/well, and edge wells are filled with sterile PBS. • (2) The cells are incubated under 5% CO2 at 37° C., an original culture medium is discarded after complete cell adherence, 200 μl of 1 wt % FBS culture medium containing 0.01 μM, 0.1 μM, 1 μM, 5 μM and 10 μM compound I-1 or cerulenin is added into each well, and there are 6 wells run in duplicate. An equal volume of DMSO is added as a negative control. • (3) After 72 hours of incubation, the cells are photographed for state recording, an original culture medium is discarded, and 100 μl of serum-free culture medium containing 0.5 mg/ml MTT (3-(4,5-dimethylthiazole-2)-2,5-diphenyltetrazolium bromide, trade name thiazolyl blue) is added into each well. • (4) After 2-4 hours of incubation, an original culture medium is discarded, and 150 μl of dimethyl sulfoxide (DMSO) is added into each well and shaken at 300 rpm for 10 minutes to fully dissolve purple crystals. • (5) The absorbance of each well at OD570 nm is measured by an enzyme-linked immunodetection instrument, the absorbance at OD630 nm is used as a reference, dual-wavelength measurement is carried out, and survival rate results are calculated according to the following formula: Cell survival rate=(OD570−OD630)/(OD570 negative control−OD630 negative control);
(§2) wherein, OD570: OD570 value of each treatment group; OD630: OD630 value of each treatment group; OD570 control: OD570 value of the negative control group; OD630 control: OD630 value of the negative control group. • (6) The survival rate results are processed with graphpad 6.0 software according to the concentration gradient, the analysis mode is log (inhibitor) vs. Nonlinear regression (curve fit), and the calculated IC50 value is expressed as x+/−SD.
(§3) The FASN enzyme activity measurement method shown in Experimental Example 18 is used to detect the effects of different substances on FASN enzyme activity. The method shown in Experimental Example 19 is used to detect the effects of different substances on the proliferation of tumor cells, cerulenin is used as a control, and the inhibition rates (%) of different substances on FASN enzyme activity and inhibition rates (IC50 nM) on tumor proliferation are calculated.

Test [3] has as its system colon cancer cells HCT116. Briefly: MTT tumor proliferation IC50, HCT116.
Description: as §1, §2, §3

Test [4] has as its system tumor cells 22RV1, PC-3, HT-29, Hela, Hep G2, CaCo-2 and HCT116. Briefly: MTT proliferation of various tumor cells at single concentration (FIG. 2). The conditions noted are these: 10 μM, 72 hours, 7 different tumor cells. From the text: Cell survival rate=(OD570−OD630)/(OD570 negative control−OD630 negative control); wherein, OD570: OD570 value of each treatment group; OD630: OD630 value of each treatment group; OD570 control: OD570 value of the negative control group; OD630 control: OD630 value of the negative control group.

[5] abbreviates: Homo sapiens, HCT-116, 72 hours of incubation.

T1 sequence (P49327 whole entry): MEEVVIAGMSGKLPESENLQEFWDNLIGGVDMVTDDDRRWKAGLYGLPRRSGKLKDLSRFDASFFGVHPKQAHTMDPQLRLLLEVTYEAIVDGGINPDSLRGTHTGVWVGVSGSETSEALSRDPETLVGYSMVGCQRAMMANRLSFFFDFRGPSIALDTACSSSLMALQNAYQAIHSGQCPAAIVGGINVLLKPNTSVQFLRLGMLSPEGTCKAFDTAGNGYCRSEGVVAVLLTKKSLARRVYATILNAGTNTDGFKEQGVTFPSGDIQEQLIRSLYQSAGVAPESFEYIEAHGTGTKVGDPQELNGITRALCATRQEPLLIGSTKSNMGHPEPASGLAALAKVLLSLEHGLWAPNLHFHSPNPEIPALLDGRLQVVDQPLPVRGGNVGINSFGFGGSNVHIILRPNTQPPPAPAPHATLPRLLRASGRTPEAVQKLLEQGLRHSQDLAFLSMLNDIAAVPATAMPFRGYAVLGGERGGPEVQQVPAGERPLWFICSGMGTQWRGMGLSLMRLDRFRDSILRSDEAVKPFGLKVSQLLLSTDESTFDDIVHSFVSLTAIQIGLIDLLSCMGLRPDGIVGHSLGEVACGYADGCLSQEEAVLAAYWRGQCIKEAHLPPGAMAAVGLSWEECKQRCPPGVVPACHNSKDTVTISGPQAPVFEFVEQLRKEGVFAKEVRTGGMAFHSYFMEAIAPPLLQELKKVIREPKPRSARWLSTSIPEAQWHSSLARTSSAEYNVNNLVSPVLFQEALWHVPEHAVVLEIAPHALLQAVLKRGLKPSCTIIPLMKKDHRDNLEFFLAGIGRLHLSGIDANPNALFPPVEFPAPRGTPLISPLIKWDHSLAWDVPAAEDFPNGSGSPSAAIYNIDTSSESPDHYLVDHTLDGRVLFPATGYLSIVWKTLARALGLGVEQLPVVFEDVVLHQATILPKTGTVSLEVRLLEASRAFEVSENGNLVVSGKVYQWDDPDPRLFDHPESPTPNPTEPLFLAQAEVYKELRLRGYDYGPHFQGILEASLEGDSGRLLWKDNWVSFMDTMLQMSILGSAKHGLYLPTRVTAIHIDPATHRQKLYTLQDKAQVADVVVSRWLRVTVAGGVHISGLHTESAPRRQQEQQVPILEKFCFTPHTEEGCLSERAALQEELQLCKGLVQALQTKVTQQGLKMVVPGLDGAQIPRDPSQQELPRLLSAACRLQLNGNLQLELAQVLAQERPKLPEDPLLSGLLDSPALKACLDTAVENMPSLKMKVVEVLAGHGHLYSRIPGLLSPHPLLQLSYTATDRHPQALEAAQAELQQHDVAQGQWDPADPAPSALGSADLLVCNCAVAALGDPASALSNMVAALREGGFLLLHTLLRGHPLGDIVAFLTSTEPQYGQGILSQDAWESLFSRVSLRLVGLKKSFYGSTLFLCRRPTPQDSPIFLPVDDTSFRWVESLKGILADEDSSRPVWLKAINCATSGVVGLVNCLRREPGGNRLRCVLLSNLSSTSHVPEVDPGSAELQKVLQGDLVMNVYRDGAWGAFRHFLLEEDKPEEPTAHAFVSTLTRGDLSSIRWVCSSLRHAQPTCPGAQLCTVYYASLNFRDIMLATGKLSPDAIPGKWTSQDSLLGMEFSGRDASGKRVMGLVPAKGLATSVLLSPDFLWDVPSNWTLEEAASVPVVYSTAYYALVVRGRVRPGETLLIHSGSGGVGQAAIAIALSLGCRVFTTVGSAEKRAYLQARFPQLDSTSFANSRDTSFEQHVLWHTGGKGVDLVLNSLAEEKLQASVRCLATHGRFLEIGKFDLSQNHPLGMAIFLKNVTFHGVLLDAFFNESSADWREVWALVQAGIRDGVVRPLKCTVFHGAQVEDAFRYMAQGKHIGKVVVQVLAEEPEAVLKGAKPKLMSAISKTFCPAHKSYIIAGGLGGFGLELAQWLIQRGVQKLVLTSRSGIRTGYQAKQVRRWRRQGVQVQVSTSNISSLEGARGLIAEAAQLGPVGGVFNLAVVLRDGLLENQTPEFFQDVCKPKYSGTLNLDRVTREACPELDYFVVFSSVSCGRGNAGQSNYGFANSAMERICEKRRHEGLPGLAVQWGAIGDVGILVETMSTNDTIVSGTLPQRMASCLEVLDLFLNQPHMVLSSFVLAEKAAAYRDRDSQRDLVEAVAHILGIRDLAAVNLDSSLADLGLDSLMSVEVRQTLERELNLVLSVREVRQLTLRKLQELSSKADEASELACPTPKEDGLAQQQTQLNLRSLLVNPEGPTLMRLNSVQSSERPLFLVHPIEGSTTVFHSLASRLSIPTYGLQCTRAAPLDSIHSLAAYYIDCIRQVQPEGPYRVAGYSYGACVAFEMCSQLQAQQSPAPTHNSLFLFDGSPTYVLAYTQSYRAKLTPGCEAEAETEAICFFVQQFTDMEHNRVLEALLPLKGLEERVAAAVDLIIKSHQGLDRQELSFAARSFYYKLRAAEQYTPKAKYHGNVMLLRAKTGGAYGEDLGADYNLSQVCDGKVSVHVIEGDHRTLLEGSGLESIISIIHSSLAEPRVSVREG

Turning to “5-(4-bromophenylamino)-5-oxopentanoic acid [Intermediate 1]”, the “FASN enzyme activity inhibition rate (%)” value in test [1] (20 μM, 4 hours of incubation) is reported as 31.87%. Further, the figures for the IC50 in test [2] and in test [3] (72 hours of incubation) were 15 ± 1.3 nM and 19 ± 2.1 nM, respectively.
With `C/C=C/C/C=C/CCC(=O)[C@H]1O[C@H]1C(N)=O` [Cerulenin, cerulenin, reference compound], the inhibition (in general, the drop in the measured response relative to a control, in per cent) at 20 µM in test [1] was determined as 21.3%. Moreover, the figures for the IC50 in test [2] and in test [3] (setting [5]) were 18 ± 2.7 nM and 29 ± 3.2 nM, respectively. Further, the “effect on proliferation of tumor cells” value in test [4] is “no significant effect on the proliferation of some tumor cells”.
For the compound `C=C1C(=O)OC(CCCCCCCC)C1C(=O)O` (centres unmarked) [Compound C75, C75], in test [4], the “effect on proliferation of tumor cells” value is reported as “no significant effect on the proliferation of some tumor cells”.
`COc1ccc(Br)cc1CNC(=O)NCCCC(=O)Nc1ccc(Br)cc1` [Compound I-2]: in test [1], the inhibition at 20 µM was determined as 30.7%. In addition, the 50% inhibitory concentration (IC50) (as a rule, the midpoint of a concentration-inhibition curve) in test [2] is 16 ± 2.9 nM; in test [3] (setting [5]) it was 21 ± 1.6 nM.
Take `O=C(CCCNC(=O)NCc1cc(Br)ccc1O)Nc1ccc(Br)cc1` [Compound I-3]: the inhibition at 20 µM in test [1] came to 41.2%. The IC50 is 14 ± 2.8 nM in test [2] and 15 ± 2.5 nM in test [3] (setting [5]).
For `O=C(CCCC(=O)Nc1ccc(Br)cc1)NNC(=O)c1cc(Br)ccc1O` [Compound I-4] the same measures were 49%, 11 ± 1.8 nM and 14 ± 1.7 nM.
For `O=C(CCC(=O)Nc1ccccc1)/N=C/c1ccccc1` [Compound I-6] the same measures were 41.9%, 15 ± 1.8 nM and 17 ± 2.7 nM.
Take `O=C(CCC(=O)Nc1ccccc1)NC(=O)c1ccccc1` [Compound I-7]: the inhibition at 20 µM in test [1] amounted to 37.7%. The figures for the IC50 in test [2] and in test [3] (setting [5]) were 15 ± 2.1 nM and 19 ± 1.9 nM, respectively.
`O=C(CCC(=O)Nc1ccccc1)/N=C/Cc1ccccc1` [Compound I-8]: the inhibition at 20 µM in test [1] was 35.2%. The IC50 in test [2] was 16 ± 1.7 nM; in test [3] (setting [5]) it was 20 ± 3.5 nM.
On to `CCOC(=O)CCCC(=O)Nc1ccc(Br)cc1` [Intermediate 2, Ethyl 5-(4-bromophenylamino)-5-oxopentanoate], for which, in test [1], the inhibition at 20 µM came out at 22.2%. The results for the IC50 in test [2] and in test [3] (setting [5]) were 18 ± 2.5 nM and 22 ± 3.1 nM, respectively.

(Values after patent US11911353B2, “Fatty acid synthase inhibitor and application thereof” (Jiangnan University, priority 2019, dated 2024).)
